Patent publication US4791215A, “Derivatives of glutamic acid and aspartic acid” (priority 1984, dated 1988)

Legend:
[1] = system: CCK-8 induced contraction of guinea pig gall bladder; test: Anti-CCK activity on gall bladder strips in vitro; settings: CCK-8 10 ng/ml
In short: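 Longitudinal guinea pig gall bladder strips in Krebs at 32 °C, gassed with O2/CO2 95:5, were contracted with 10 ng/ml CCK-8. Isometric force was recorded across several compound concentrations, and ED50 was taken as the μg/ml concentration antagonising 50% of the CCK contraction.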

morphine analgesia = test: Increase in analgesia of morphine, Tail Flick Test (Experiment 1); type: in vivo, rats; settings: for percentage variation of latency of pain sensation / M (10-90) ± SE, mean percentage variation of latency: compound 10 mg/kg i.p. + morphine 2 mg/kg; for M (10-90) ± SE, mean percentage variation of latency: mean 10-90 min; for Power ratio with respect to morphine alone: rat, in vivo
In short: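 Non-fasted male rats (150-200 g); a tail point is exposed to a 75 °C heat source and latency to tail movement recorded, 8 s cut-off. Readings taken before and 10, 20, 30, 45, 60 and 90 min after analgesic treatment; percentage variation calculated per animal.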

| Compound | ED50 (concentration antagonising 50% of contracting effect of CCK-8) [1] [µg/mL] | percentage variation of latency of pain sensation (morphine analgesia; 10') [%] | percentage variation of latency of pain sensation (morphine analgesia; 20') [%] | percentage variation of latency of pain sensation (morphine analgesia; 30') [%] | percentage variation of latency of pain sensation (morphine analgesia; 45') [%] | percentage variation of latency of pain sensation (morphine analgesia; 60') [%] | percentage variation of latency of pain sensation (morphine analgesia; 90') [%] | M (10-90) ± SE, mean percentage variation of latency (morphine analgesia) [%] | Power ratio with respect to morphine alone (morphine analgesia) |
| --- | --- | --- | --- | --- | --- | --- | --- | --- | --- |
| CCCCN(CCCC)C(=O)C(CCC(=O)O)NC(=O)c1ccc(Cl)cc1Cl (stereo not drawn) [Compound C-10] | 43.7 | 56.9 ± 25.8 | 66.4 ± 21.4 | 72.9 | 70.1 ± 18.5 | 66.2 ± 21.3 | 63.2 ± 23.4 | 66.0 ± 5.6 | 2.21 |
| O=C(NC(CCC(=O)N1CCOCC1)C(=O)O)c1ccc(Br)cc1 [Compound D-6] | > 200 | 31.2 ± 22.0 | 45.8 ± 23.0 | 50.7 | 44.5 ± 24.0 | 45.3 ± 24.0 | 28.2 ± 19.0 | 41.0 ± 9.0 | 1.37 |
| O=C(NC(CCC(=O)N1CCCCC1)C(=O)O)c1ccc(Br)cc1 [Compound D-7] | > 200 | 31.8 ± 19.0 | 48.0 ± 16.0 | 70.5 ± 15.0 | 73.7 ± 13.0 | 88.6 | 32.4 ± 19.0 | 57.5 ± 23.5 | 1.93 |
| CCCCNC(=O)CC(NC(=O)c1ccc(Cl)c(Cl)c1)C(=O)O [Compound D-3] | > 200 | 63.8 ± 17.0 | 79.9 ± 13.0 | 100.0 ± 0.0 | 58.6 ± 18.0 | 33.8 ± 18.0 | 32.9 ± 10.0 | 61.5 | 2.06 |
| O=C(NC(CCC(=O)N1CCCCC1)C(=O)O)c1ccc(Cl)c(Cl)c1 [Compound D-9] | > 200 | 88.5 ± 19.0 | 74.0 ± 16.0 | 70.9 ± 16.0 | 73.0 ± 15.0 | 84.5 ± 12.0 | 79.9 ± 12.0 | 75.1 ± 6.0 | 2.52 |
| CCCN(CCC)C(=O)C(CCC(=O)O)NC(=O)c1c(C)cc(C)cc1C (stereo not drawn) [Compound C-33] | 131.7 | -0.1 ± 12 | 30.9 ± 8 | 38.7 | 41.7 ± 16 | 48.7 ± 21 | 46.6 ± 12 | 34.4 ± 18 | 1.15 |
| N#Cc1ccc(C(=O)NC(CCC(=O)N2CCCCC2)C(=O)O)cc1 [Compound D-10] | > 200 | 41.0 ± 8.0 | 58.6 ± 17.0 | 59.8 ± 17.0 | 62.7 ± 15.0 | 47.0 | 35.4 ± 11.0 | 50.8 ± 11.2 | 1.70 |
| CCCN(CCC)C(=O)C(CCC(=O)O)NC(=O)c1ccc(I)cc1 (stereo not drawn) [Compound C-18] | 60.3 | 48.9 ± 31.0 | 65.9 ± 24.0 | 80.1 ± 9.0 | 59.1 ± 20.0 | 33.5 ± 20.0 | 81.4 ± 12.0 | 58.1 | 1.95 |
| CCCCN(CCCC)C(=O)CCC(NC(=O)c1ccc(Br)cc1)C(=O)O [Compound D-4] | > 200 | 72.8 ± 15.0 | 95.8 ± 3.0 | 96.3 ± 4.0 | 85.5 | 87.5 ± 8.0 | 45.3 ± 6.0 | 80.5 ± 19.3 | 2.70 |
| CCCCCN(CCCCC)C(=O)C(CCC(=O)O)NC(=O)c1ccc(C)c(C)c1 (stereo not drawn) [Compound C-55] | 0.5 | 89.3 ± 16 | 86.2 ± 12 | 94.4 | 100 ± 0 | 100 ± 0 | 81.7 ± 13 | 88.6 ± 12 | 2.97 |
| CCc1ccc(C(=O)NC(CCC(=O)O)C(=O)NC2CCCCC2)cc1 (stereo not drawn) [Compound C-48] | 119.1 | 42.1 ± 14 | 59.5 ± 8 | 50.1 ± 21 | 78.4 | 43.7 ± 30 | 44.9 ± 18 | 53.1 ± 14 | 1.78 |
| Cc1ccc(C(=O)NC(CCC(=O)O)C(=O)NC2CCCCC2)cc1C (stereo not drawn) [Compound C-47] | 35.1 | 24.5 | 63.5 ± 18 | 52.3 ± 17 | 80.1 ± 22 | 73.2 ± 17 | 49.3 ± 19 | 57.1 ± 20 | 1.92 |
